The source of these data is patent publication US8309718B2, “4-pyrazolyl-N-arylpyrimidin-2-amines and 4-pyrazolyl-N-heteroarylpyrimidin-2-amines as janus kinase inhibitors” (Incyte Corporation, priority 2007, dated 2012).

The target of the test is T1, human JAK2 (Homo sapiens, UniProt O60674).
T1 construct: JAK2 (a.a. 828-1132); His tag (N); made in house; host or cells: insect cells (baculovirus)
T1 sequence (O60674 828-1132): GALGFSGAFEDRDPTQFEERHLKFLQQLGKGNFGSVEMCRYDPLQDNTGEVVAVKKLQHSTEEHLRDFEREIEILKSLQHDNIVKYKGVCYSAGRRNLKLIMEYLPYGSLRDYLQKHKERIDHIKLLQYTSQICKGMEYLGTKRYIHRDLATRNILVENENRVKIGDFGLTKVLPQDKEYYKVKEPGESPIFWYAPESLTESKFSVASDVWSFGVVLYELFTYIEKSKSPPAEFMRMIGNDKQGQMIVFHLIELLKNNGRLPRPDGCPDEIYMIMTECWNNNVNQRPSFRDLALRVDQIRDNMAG
Kind of test: In vitro JAK kinase assay (HTRF, phosphorylation of biotinylated peptide). The format is biochemical. Conditions: catalytic domain a.a. 828-1132, 30 μM ATP, 500 nM peptide, room temperature 1 hr; read-out: JAK-2 IC50. The gist of the method: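 IC50 from HTRF detection (Eu-Py20 antibody, SA-APC) of biotinylated-peptide phosphorylation (500 nM), run 1 h at RT. Enzyme: N-His human JAK2 kinase domain a.a. 828-1132 from insect cells; ATP 30 μM; buffer 50 mM Tris pH 7.8 with NaCl, DTT, BSA.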
Broadly, the IC50 is the concentration that inhibits the measured activity by half. On to `N#CCC1(n2cc(-c3ccnc(Nc4ccc(-c5cnco5)cc4)n3)cn2)CN(S(=O)(=O)C2CC2)C1` [Example 21, 2-(1-(cyclopropylsulfonyl)-3-(4-(2-(4-(oxazol-5-yl)phenylamino)pyrimidin-4-yl)-1H-pyrazol-1-yl)azetidin-3-yl)acetonitrile], for which the IC50 was < 0.1 µM.

Regarding `N#CCC1(n2cc(-c3ccnc(Nc4ccc(-n5cccn5)cc4)n3)cn2)CCN(S(=O)(=O)C2CC2)CC1` [Example 28, 2-(4-(4-(2-(4-(1H-pyrazol-1-yl)phenylamino)pyrimidin-4-yl)-1H-pyrazol-1-yl)-1-(cyclopropylsulfonyl)piperidin-4-yl)acetonitrile], the IC50 was < 0.1 µM.

For `N#CCC1(n2cc(-c3ccnc(Nc4ccc(N5CCOCC5)cc4)n3)cn2)CCN(S(=O)(=O)C2CC2)CC1` [Example 29, 2-(1-(cyclopropylsulfonyl)-4-(4-(2-(4-morpholinophenylamino)pyrimidin-4-yl)-1H-pyrazol-1-yl)piperidin-4-yl)acetonitrile], the IC50 is < 0.1 µM.

Regarding `N#CCC1(n2cc(-c3ccnc(Nc4ccc(C(N)=O)cc4)n3)cn2)CCN(S(=O)(=O)C2CC2)CC1` [Example 30, 4-(4-(1-(4-(cyanomethyl)-1-(cyclopropylsulfonyl)piperidin-4-yl)-1H-pyrazol-4-yl)pyrimidin-2-ylamino)benzamide], the IC50 was < 0.1 µM.

On to `N#CCC1(n2cc(-c3ccnc(Nc4ccc(C(=O)NCCO)cc4)n3)cn2)CCN(S(=O)(=O)C2CC2)CC1` [Example 31, 4-(4-(1-(4-(cyanomethyl)-1-(cyclopropylsulfonyl)piperidin-4-yl)-1H-pyrazol-4-yl)pyrimidin-2-ylamino)-N-(2-hydroxyethyl)benzamide], for which the concentration for half-maximal inhibition (IC50) was < 0.1 µM.

In the case of `CN(C)C(=O)c1ccc(Nc2nccc(-c3cnn(C4(CC#N)CCN(S(=O)(=O)C5CC5)CC4)c3)n2)cc1` [Example 32, 4-(4-(1-(4-(cyanomethyl)-1-(cyclopropylsulfonyl)piperidin-4-yl)-1H-pyrazol-4-yl)pyrimidin-2-ylamino)-N,N-dimethylbenzamide], the IC50 was < 0.1 µM.

With `N#CCC1(n2cc(-c3ccnc(Nc4ccc(N5CCOCC5)cc4)n3)cn2)CN(S(=O)(=O)C2CC2)C1` [Example 93, 2-(1-(cyclopropylsulfonyl)-3-(4-(2-(4-morpholinophenylamino)pyrimidin-4-yl)-1H-pyrazol-1-yl)azetidin-3-yl)acetonitrile], the IC50 is < 0.1 µM.

As to `N#CCC1(n2cc(-c3ccnc(Nc4ccc(N5CCOCC5)cc4)n3)cn2)CCN(C(=O)c2ccno2)CC1` [Example 94, 2-(1-(isoxazole-5-carbonyl)-4-(4-(2-(4-morpholinophenylamino)pyrimidin-4-yl)-1H-pyrazol-1-yl)piperidin-4-yl)acetonitrile], the IC50 is < 0.1 µM.

Take `CN1CCCC1CCNC(=O)c1cccc(Nc2nccc(-c3cnn(C(CC#N)C4CCCC4)c3)n2)c1` (centres unmarked) [Example 149, 3-(4-(1-(2-cyano-1-cyclopentylethyl)-1H-pyrazol-4-yl)pyrimidin-2-ylamino)-N-(2-(1-methylpyrrolidin-2-yl)ethyl)benzamide]: the 50% inhibitory concentration (IC50) is < 0.1 µM.

With `N#CCC(C1CCCC1)n1cc(-c2ccnc(Nc3cccc(C(=O)NCCN4CCNC4=O)c3)n2)cn1` (centres unmarked) [Example 159, 3-(4-(1-(2-cyano-1-cyclopentylethyl)-1H-pyrazol-4-yl)pyrimidin-2-ylamino)-N-(2-(2-oxoimidazolidin-1-yl)ethyl)benzamide], the 50% inhibitory concentration (IC50) is < 0.1 µM.

With `N#CCC(C1CCCC1)n1cc(-c2ccnc(Nc3cccc(NC(=O)O[C@@H]4CCOC4)c3)n2)cn1` (stereo partly drawn) [Example 200, (R)-tetrahydrofuran-3-yl 3-(4-(1-(2-cyano-1-cyclopentylethyl)-1H-pyrazol-4-yl)pyrimidin-2-ylamino)phenylcarbamate], the IC50 was < 0.1 µM.

Turning to `N#CCC(C1CCCC1)n1cc(-c2ccnc(Nc3ccc(NC(=O)CN4CC[C@@H](O)C4)cc3)n2)cn1` (stereo partly drawn) [Example 204, N-(4-(4-(1-(2-cyano-1-cyclopentylethyl)-1H-pyrazol-4-yl)pyrimidin-2-ylamino)phenyl)-2-((R)-3-hydroxypyrrolidin-1-yl)acetamide], the IC50 is < 0.1 µM.

For the molecule `CC(=O)N[C@H]1CCN(C(=O)c2ccc(Nc3nccc(-c4cnn(C(CC#N)C5CCCC5)c4)n3)cc2)C1` (stereo partly drawn) [Example 222, N-((3S)-1-(4-(4-(1-(2-cyano-1-cyclopentylethyl)-1H-pyrazol-4-yl)pyrimidin-2-ylamino)benzoyl)pyrrolidin-3-yl)acetamide], the IC50 was < 0.1 µM.

With `CCS(=O)(=O)N1CC(CC#N)(n2cc(-c3ccnc(Nc4ccc(C(=O)N5CCOCC5)cc4)n3)cn2)C1` [Example 255, 2-(1-(ethylsulfonyl)-3-(4-(2-(4-(morpholine-4-carbonyl)phenylamino)pyrimidin-4-yl)-1H-pyrazol-1-yl)azetidin-3-yl)acetonitrile], the concentration for half-maximal inhibition (IC50) was < 0.1 µM.

Turning to `CCS(=O)(=O)N1CC(CC#N)(n2cc(-c3ccnc(Nc4ccc(C(=O)N5CCC(O)CC5)cc4)n3)cn2)C1` [Example 256, 2-(1-(ethylsulfonyl)-3-(4-(2-(4-(4-hydroxypiperidine-1-carbonyl)phenylamino)pyrimidin-4-yl)-1H-pyrazol-1-yl)azetidin-3-yl)acetonitrile], the IC50 was < 0.1 µM.

As to `CCS(=O)(=O)N1CC(CC#N)(n2cc(-c3ccnc(Nc4ccc(C(=O)N5[C@@H]6CC[C@H]5C[C@@H](O)C6)cc4)n3)cn2)C1` [Example 257, 2-(1-(ethylsulfonyl)-3-(4-(2-(4-((3-endo)-3-hydroxy-8-azabicyclo[3.2.1]octane-8-carbonyl)phenylamino)pyrimidin-4-yl)-1H-pyrazol-1-yl)azetidin-3-yl)acetonitrile], the 50% inhibitory concentration (IC50) was < 0.1 µM.

As for `CCS(=O)(=O)N1CC(CC#N)(n2cc(-c3ccnc(Nc4ccc(C(=O)N5CCCC5)cc4)n3)cn2)C1` [Example 258, 2-(1-(ethylsulfonyl)-3-(4-(2-(4-(pyrrolidine-1-carbonyl)phenylamino)pyrimidin-4-yl)-1H-pyrazol-1-yl)azetidin-3-yl)acetonitrile], the half-maximal inhibitory concentration (IC50) is < 0.1 µM.

As to `CCS(=O)(=O)N1CC(CC#N)(n2cc(-c3ccnc(Nc4ccc(C(=O)NC5CCOCC5)cc4)n3)cn2)C1` [Example 259, 4-(4-(1-(3-(cyanomethyl)-1-(ethylsulfonyl)azetidin-3-yl)-1H-pyrazol-4-yl)pyrimidin-2-ylamino)-N-(tetrahydro-2H-pyran-4-yl)benzamide], the IC50 is < 0.1 µM.

Consider `CCS(=O)(=O)N1CC(CC#N)(n2cc(-c3ccnc(Nc4ccc(C(=O)N5CCC5)cc4)n3)cn2)C1` [Example 273, 2-(3-(4-(2-(4-(azetidine-1-carbonyl)phenylamino)pyrimidin-4-yl)-1H-pyrazol-1-yl)-1-(ethylsulfonyl)azetidin-3-yl)acetonitrile], for which the IC50 is < 0.1 µM.

Turning to `CCS(=O)(=O)N1CC(CC#N)(n2cc(-c3ccnc(Nc4ccc(C(=O)N5C6CC7CC5CC(C6)O7)cc4)n3)cn2)C1` [Example 274, 1-(ethylsulfonyl)-3-(4-(2-(4-(2-oxa-6-azatricyclo[3.3.1.1(3,7)]dec-6-ylcarbonyl)phenyl)aminopyrimidin-4-yl)-1H-pyrazol-1-yl)azetidin-3-ylacetonitrile], the IC50 was < 0.1 µM.
